Columns and labels:
[1] = molecular target: T1, Or22a (Drosophila melanogaster, UniProt P81909); test: CNT-FET sensor covalently functionalized with Or22a nanodiscs (Example 3); format: binding
T1 sequence (P81909 1-397): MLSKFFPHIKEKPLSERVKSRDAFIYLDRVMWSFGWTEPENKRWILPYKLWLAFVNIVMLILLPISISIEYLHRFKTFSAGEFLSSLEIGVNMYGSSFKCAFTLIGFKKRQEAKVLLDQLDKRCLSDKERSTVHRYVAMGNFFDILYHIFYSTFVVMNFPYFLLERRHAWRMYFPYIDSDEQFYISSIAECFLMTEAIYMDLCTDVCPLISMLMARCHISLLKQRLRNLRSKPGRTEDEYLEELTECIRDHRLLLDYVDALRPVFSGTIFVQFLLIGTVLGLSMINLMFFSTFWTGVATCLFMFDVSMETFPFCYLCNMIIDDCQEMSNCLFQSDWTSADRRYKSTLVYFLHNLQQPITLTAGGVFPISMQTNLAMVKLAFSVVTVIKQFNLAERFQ
Description: The dispersion was sonicated until a clear solution was obtained. The temperature was kept at 25° C. throughout the sonication process. The thiolpyridine solution was prepared by dissolving 10 mg of 2-Mercaptopyridine (99%, Sigma Aldrich) in 1 ml of methanol. The solution was spun coated on a polydimethylsiloxane (PDMS) surface at 2000 rpm for one minute. Before the spin coating process, the PDMS surface was cleaned by a 50 W Oxygen plasma for 1 minute to improve the wettability. The cleaned substrates were placed upside down on the PDMS surface for three minutes and washed in ethanol to remove the excess thiolpyridine molecules. Then the substrates were transferred into the CNT suspension and immersed into the suspension for 10 minutes. The samples were removed from the suspension and dipped into Ethanol for another 10 minutes to remove the thiolpyridine molecules in the SWNT network. The alignment markers were deposited by defining the markers by photolithography and thermal evaporation of 5 nm Chromium and 50 nm of Gold. The metal Lift off was done by acetone immersion for 15 minutes followed by an Isopropyl alcohol (IPA) wash and N2 blow dry. The result is a uniform thin film CNT network covering the entire substrate surface. The purification procedure is a variation on the one detailed in […] et al. 2013^14. […] Purity was assessed on Coomassie stained SDS-PAGE gels and Western blotting. […]

[2] = QCM-D control with empty liposomes (Example 6); conditions: empty liposomes immobilised on the QCM
Description: Gold (100 nm) sensor crystals were sonicated in ethanol and milli-Q water for 15 minutes each respectively. A 5:1:1 volume ratio of milli-Q water, ammonia (25%), and hydrogen peroxide (30%) was heated to 75° C. for 5 minutes and the sonicated crystals were placed in the heated solution for 5 minutes. Then the crystals were removed from the solution and rinsed with milli-Q water before drying with nitrogen gas. The clean gold crystals were thiol-functionalized by exposing them to 2 mM ethanolic solution of MHA overnight followed by washing with ethanol solution in order to remove excess or loosely bound molecules. The SAM functionalized crystals were then placed into the Q-sense analyser instrument (Biolin Scientific) chamber and flowed with the NHS/EDC, OR22a/liposomes and various concentrations of methyl hexanoate (1.6 μM, 8 μM, 40 μM, 200 μM and 1 mM) in PBS buffer solution to measure the changes in frequency (Δf) and dissipation (ΔD) values.

In the case of `CCCCCC(=O)OC` [methyl hexanoate], the limit of detection ([1]; nanodiscs 1:100 dilution) is reported as “below 1 fM”, the “concentration at which clear electronic response starts” value ([1]; real time current measurement mode) is reported as 1 fM and the “increase in oscillation frequency” value [2] is reported as “not observed”.

From patent US12044651B2, “Sensor device and methods” (SCENTIAN BIO LIMITED, priority 2016, dated 2024)
